Columns and labels:
Type in all cases: in vivo
Aspergillus carbonarius [1] = experiment: Sour rot incidence and severity on black seedless grapes, 2022 field trial (Example 5); conditions: for Sour rot clusters of High severity (PESSEV) / Sour rot clusters of Low severity (PESSEV) / Sour rot clusters of Medium severity (PESSEV): ABCDE; for Sour rot clusters of High severity (PESSEV): Aug. 10, 2022, high = >51%; for Sour rot clusters of Low severity (PESSEV): Aug. 10, 2022, low = <40% of cluster area; for Sour rot clusters of Medium severity (PESSEV): Aug. 10, 2022, medium = 41%-50%; for Sour rot infected clusters (PESINC): applications ABCDE, rated Aug. 10, 2022
Procedure: Field trials were conducted in California 2022 (a dry year) to investigate the efficacy of MDJ in preventing Sour Rot caused by Aspergillus carbonarius (also known as summer bunch rot, abbreviated ASPECA in Table 7). Black seedless grapes (Vitis labrusca) were used in this trial. Four vines were used per plot. The plots were arranged in a randomized complete block design with six replicates (plots) per treatment. The plots were sprayed five times (ABCDE) at a rate of 500 gal/AC.
Treatments consisted of MDJ at 32 oz and 48 oz/A. A treatment of Regalia® at 1.5 qt/100 gal and Stargus® at 2 qt/100 gal was included for comparative purposes. Application D occurred at 5-10% veraison. Application E occurred at 40% veraison.
(§1) Botrytis and powdery mildew were absent for the trial. An evaluation of sour rot was completed before the harvest. The area of an infected cluster was estimated into a percentage and categorized into three levels of severity: low (<40%), medium (41%-50%), and high (>51%). The majority of individual infected clusters had low severity.

Aspergillus carbonarius [2] = experiment: Sour rot incidence and severity on Kyoho grapes, 2022 field trial (Example 6); conditions: for sour rot Incidence per plot (PESINC, clusters) / sour rot severity High (PESSEV, clusters) / sour rot severity Low (PESSEV, clusters) / sour rot severity Medium (PESSEV, clusters): applications ABCD; for sour rot severity High (PESSEV, clusters): high (>51%); for sour rot severity Low (PESSEV, clusters): low (<40% of cluster area infected); for sour rot severity Medium (PESSEV, clusters): medium (41%-50%)
Procedure: (§2) Field trials were conducted in California 2022 (a dry year) to investigate the efficacy of MDJ in preventing Sour Rot caused by Aspergillus carbonarius (also known as summer bunch rot, abbreviated ASPECA in Table 10). Kyoho grapes (Vitis vinifera×Vitis labrusca) were used in this trial. Three vines were used per plot. The plots were arranged in a randomized complete block design with six replicates (plots) per treatment (24 plots total). The plots were sprayed four times (ABCD) at a rate of 500 gal/AC.
(§3) Treatments consisted of MDJ at 32 oz and 48 oz/A. A treatment of Regalia® at 1.5 qt/100 gal and Stargus® at 2 qt/100 gal was included for comparative purposes.
as §1

[3] = system: Kyoho grapes (Vitis vinifera×Vitis labrusca); experiment: Cluster weight, grape weight, diameter, grapes per cluster, pH and Brix in Kyoho grapes (Example 6); conditions: for Average Brix (FRUIT, BRIX) / Average diameter (FRUIT, DIAMET) / Average fruit per cluster (CLUSTR, COUNT) / Individual grape weight (FRUIT, WEIGHT) / pH (FRUIT, PH) / Average Weight of cluster: applications ABCD; for Average Brix (FRUIT, BRIX) / Average diameter (FRUIT, DIAMET) / Average fruit per cluster (CLUSTR, COUNT) / Individual grape weight (FRUIT, WEIGHT): rated Aug. 17, 2022; for pH (FRUIT, PH): rated Aug. 17, 2022, scale 0-14
Procedure: as §2, §3

Botrytis cinerea = Botrytis cinerea disease score (0-5) on inoculated hemp plants (Example 7); conditions: at harvest, 8 replicates
Procedure: A Botrytis cinerea isolate was cultured onto potato-dextrose agar (PDA) and re-isolated by taking a mycelial plug from the edge of actively growing cultures every 2-3 weeks to maintain active growing culture. It was maintained at 20° C. under continuous light (˜[…] m^−2 s^−1). An inoculum was prepared by flooding a full grown B. cinerea PDA plate with DI water and 0.1% Tween-20 to create a suspension of fungal spores. Spore count was quantified.
In the first inoculation, a suspension of 1.2×10^4 spores of B. cinerea/mL was created, and 1.5 mL was applied to the top cola/underdeveloped inflorescence of each hemp plant in the first week of flowering. In the second inoculation, a suspension of 1.5×10^5 spores of B. cinerea/mL was created, and sucrose was added to 1% concentration, and the plants were sprayed until drip using a backpack sprayer.
Inoculated plants were placed in a controlled growth environment with a constant temperature of 20-25° C. and 50-70% relative humidity. (See Zhang et al., “Infection Assays of Tomato and Apple Fruit by the Fungal Pathogen Botrytis cinerea,” bio-protocol 2014; 4 (23): 1-4. See also, Bulger et al. Phytopathology 1987; 77 (8): 1225-1230 and Garfinkel, Plant Disease 2020; 104 (7): 2026.)
Treatments comprising 1 mM or 5 mM jasmonate (MDJ) were applied alone or alongside a biological (Continuum™). […]

## CCCCCC1C(=O)CCC1CC(=O)OC (stereo not shown) [MDJ, methyl dihydrojasmonate]
Aspergillus carbonarius [1]; 32 oz/a
  Sour rot clusters of High severity (PESSEV): 1.3— NUMBER
  Sour rot clusters of Low severity (PESSEV): 7.2— NUMBER
  Sour rot clusters of Medium severity (PESSEV): 5.3— NUMBER
  Sour rot infected clusters (PESINC): 13.8— NUMBER
Aspergillus carbonarius [1]; 48 oz/a
  Sour rot clusters of High severity (PESSEV): 0.8— NUMBER
  Sour rot clusters of Low severity (PESSEV): 6.2— NUMBER
  Sour rot clusters of Medium severity (PESSEV): 5.3— NUMBER
  Sour rot infected clusters (PESINC): 12.3— NUMBER
Aspergillus carbonarius [1]; higher rate of MDJ Elicitor (48 oz/A)
  Control of sour rot compared to the rest of the treatments: most effective at controlling sour rot
Aspergillus carbonarius [2]; Aug. 17, 2022, 32 oz/a
  sour rot Incidence per plot (PESINC, clusters): 0.8— number
  sour rot severity High (PESSEV, clusters): 0.0— number
  sour rot severity Low (PESSEV, clusters): 0.8— number
  sour rot severity Medium (PESSEV, clusters): 0.0— number
Aspergillus carbonarius [2]; Aug. 17, 2022, 48 oz/a
  sour rot Incidence per plot (PESINC, clusters): 1.2— number
  sour rot severity High (PESSEV, clusters): 0.0— number
  sour rot severity Low (PESSEV, clusters): 0.8— number
  sour rot severity Medium (PESSEV, clusters): 0.3— number
Aspergillus carbonarius [2]; lower rate of MDJ Elicitor (32 oz/A)
  Control of sour rot compared to the rest of the treatments: highest efficacy in controlling sour rot
[3]; 32 oz/a
  Average Brix (FRUIT, BRIX): 20.73%
  Average diameter (FRUIT, DIAMET): 23.778 mm
  Average fruit per cluster (CLUSTR, COUNT): 32.5 number
  Individual grape weight (FRUIT, WEIGHT): 7.277 g
  pH (FRUIT, PH): 4.0
[3]; 48 oz/a
  Average Brix (FRUIT, BRIX): 20.17%
  Average diameter (FRUIT, DIAMET): 23.917 mm
  Average fruit per cluster (CLUSTR, COUNT): 34.3 number
  Individual grape weight (FRUIT, WEIGHT): 7.232 g
  pH (FRUIT, PH): 4.0
[3]; Aug. 17, 2022, 32 oz/a
  Average Weight of cluster: 234.287a g
[3]; Aug. 17, 2022, 48 oz/a
  Average Weight of cluster: 246.350a g
[3]; MDJ treatment
  Diameter of individual grapes: did not significantly affect
  Weight of individual grapes: did not significantly affect
  pH of individual grapes: did not significantly affect
[3]; both rates of MDJ (32 and 48 oz/A)
  Grapes per cluster vs standard control (Regalia and Stargus): significantly more grapes per cluster
[3]; higher rate of MDJ (48 oz/A)
  Brix level compared to other treatments: statistically reduced the Brix level
Botrytis cinerea; condition B, 1 mM MDJ foliar spray
  Average Disease Score (0-5): 2.625
Botrytis cinerea; condition C, 5 mM MDJ foliar spray
  Average Disease Score (0-5): 2.250

Source: patent publication US20250120399A1, “METHODS AND COMPOSITIONS FOR ALTERING METABOLITES IN VITIS SPP. AND PREVENTING PESTS AND PATHOGENS” (Impello Biosciences, Inc., priority 2022, published 2025)
